Source: patent publication US7943670B2, “Liquid formulations of ractopamine” (Eli Lilly and Company, priority 2004, dated 2011)
Structures can show the parent of a compound that is named as a salt.

Assays:
Format in all cases: physicochemical
[1] = Solubility determination of ractopamine HCl in liquid agents (visual, 1-dram vials)
Protocol: Solubility determinations are performed in 1-dram vials. Add ractopamine HCl to a vial containing a liquid agent to give a final w/w ratio of 10% ractopamine HCl to liquid agent. Mix the solution vigorously on a vortex mixer for 2 to 6 minutes. After the mixing period, visually, assess whether the ractopamine dissolves in the liquid agent or whether insoluble material (cloudy solution or two distinct phases) remains in the vial. If the solubility is less than 10%, add additional liquid agent to dilute the ractopamine HCl to a 5-8% range. Repeat the mixing procedure and assess whether the ractopamine is soluble in the liquid agent or whether it remains insoluble at the lower concentration. Apply heat (from room temperature up to 60° C.) as needed to aid solubilization. Allow heated samples to cool to room temperature to assess solubility by visual observation for precipitant or cloudiness.

[2] = Chemical stability on storage: related substances by chromatogram comparison
[3] = Physical stability on storage (precipitation / remaining in solution); details: for Comment: physical stability on storage: 10% ractopamine; for physical stability on storage: 5° C. storage
[4] = Solubility of ractopamine (water, PG, PEG vehicle systems)

## CC(CCc1ccc(O)cc1)NCC(O)c1ccc(O)cc1 (stereo not drawn) [ractopamine HCl]
[1]; 1,3 Dioxolane
  Solubility @ RT: <5%
[1]; 1-Butanol
  Solubility @ RT: <10%
[1]; 1-Methyl-2-Pyrrolidinone (Pharmasolve)
  Solubility @ RT: <5%
[1]; 2-Pyrrolidone (2-Pyrol)
  Solubility @ RT: ≦5%
[1]; 4-Methyl-1-3Dioxolane
  Solubility @ RT: <5%
[1]; Acetaldehyde Phenethyl Propyl Acetal (Acetal R)
  Solubility @ RT: <10%
[1]; Acetic Acid Glacial (50% solution)
  Solubility @ RT: ≧10%
[1]; Acetone
  Solubility @ RT: <10%
[1]; Acetophenone
  Solubility @ RT: <10%
[1]; Agrimax 3 (2-pyrrolidinone, 1-Octyl 2-Pyrrolidinone, 1-Ethenylhexadecyl-, Homopolymer Sulfuric Acid Monododecyl Ester Sodium Salt)
  Solubility @ RT: <5%
[1]; AgsolEx 8
  Solubility @ RT: <5%
[1]; Amyl Acetate
  Solubility @ RT: <5%
[1]; Aromatic 100
  Solubility @ RT: <5%
[1]; Aromatic 200 (SC Solvent 200)
  Solubility @ RT: <5%
[1]; Benzoic Acid (0.3% solution)
  Solubility @ RT: <10%
[1]; Benzyl Alcohol
  Solubility @ RT: ≧5%
[1]; Block Copolymer Pluronic L31
  Solubility @ RT: ≦10%
[1]; Block Copolymer Pluronic L61, 50/50 water
  Solubility @ RT: ≧10%
[1]; Block Copolymer Pluronic L61, Neat (Viscous)
  Solubility @ RT: ≦10%
[1]; Caprylic/Capric Triglycerides, BP, FP (Labrafac CC)
  Solubility @ RT: <5%
[1]; Caprylic/capric triglyceride (Migylol 810)
  Solubility @ RT: <8%
[1]; Centrapour Clear Fry Oil
  Solubility @ RT: <5%
[1]; Citric Acid (50% solution)
  Solubility @ RT: <5%
[1]; Corn Oil (Mazzola)
  Solubility @ RT: <8%
[1]; Cyclohexanone
  Solubility @ RT: <10%
[1]; D-Gluconic Acid
  Solubility @ RT: <10%
[1]; D-Glucuronic Acid (20% solution)
  Solubility @ RT: <5%
[1]; Dichloromethane
  Solubility @ RT: <10%
[1]; Diethylene Glycol
  Solubility @ RT: ≧10%
[1]; Diethylenetriamine (DETA)
  Solubility @ RT: ≧10%
[1]; Dimethyl Isosorbide
  Solubility @ RT: <8%
[1]; Dipropylene glycol n-butyl ether
  Solubility @ RT: <10%
[1]; Ethanolamine
  Solubility @ RT: ≧10%
[1]; Ethyl Acetate
  Solubility @ RT: <5%
[1]; Ethyl Alcohol
  Solubility @ RT: <10%
[1]; Ethyl Lactate
  Solubility @ RT: <5%
[1]; Ethylene Glycol
  Solubility @ RT: ≧10%
[1]; Ethylenediamine
  Solubility @ RT: ≧20%
[1]; Forward DC
  Solubility @ RT: <5%
[1]; Fumaric Acid
  Solubility @ RT: <5%
[1]; Gamma Butylactone
  Solubility @ RT: <5%
[1]; Glutamic Acid (20% solution)
  Solubility @ RT: <5%
[1]; Glycerol Formal
  Solubility @ RT: ≦5%
[1]; Glyceryl and polyethylene glycol esters (Labrasol)
  Solubility @ RT: <5%
[1]; Glycol Ether PM
  Solubility @ RT: <5%
[1]; Hexane
  Solubility @ RT: <5%
[1]; Hydroxypropyl β-Cyclodextrin (Trappsol)
  Solubility @ RT: <10%
[1]; Isophorone
  Solubility @ RT: <10%
[1]; Isopropyl Myristrate (Emerest 2314)
  Solubility @ RT: <8%
[1]; L-Malic Acid (20% solution)
  Solubility @ RT: <5%
[1]; L-Tartaric Acid 20% solution
  Solubility @ RT: <5%
[1]; Lactic Acid (85% solution)
  Solubility @ RT: ≦10%
[1]; Maleic Acid (20% Solution)
  Solubility @ RT: ≦10%
[1]; Malonic Acid
  Solubility @ RT: ≧5%
[1]; Medium chain triglyceride (Migylol 812)
  Solubility @ RT: <8%
[1]; Methanol
  Solubility @ RT: ≧10%
[1]; Methyl Caprylate-Caprate (Emery 2209)
  Solubility @ RT: <8%
[1]; Methyl Oleate (Emery 2301)
  Solubility @ RT: <8%
[1]; Mineral Oil, QA246U
  Solubility @ RT: <5%
[1]; Mono-diglyceride of caprylic/capric fatty acids (Capmul MCM)
  Solubility @ RT: <8%
[1]; Monomethylated Polyethylene Glycol MPEG 350, 50/50 water
  Solubility @ RT: ≧10%
[1]; Monomethylated Polyethylene Glycol MPEG 350, Neat
  Solubility @ RT: ≦10%
[1]; Monomethylated Polyethylene Glycol MPEG 550, 50/50 water
  Solubility @ RT: ≧10%
[1]; Monomethylated Polyethylene Glycol MPEG 550, Neat
  Solubility @ RT: ≦10%
[1]; N,N, Dimethylacetamide
  Solubility @ RT: <5%
[1]; Nonylphenol Ethoxylate, POE-10 (Makon 10)
  Solubility @ RT: <5%
[1]; Oleic Acid (Priolene 6933)
  Solubility @ RT: <5%
[1]; Oleoyl Macrogolglycerides EP (Labrafil M 1944 CS)
  Solubility @ RT: <5%
[1]; PCO to water 50:50 w/w
  solubility: greater than 10%
[1]; PSO to water 50:50 w/w
  solubility: greater than 10%
[1]; Petroleum Ether
  Solubility @ RT: <5%
[1]; Petroleum distillates (naphtha), Panasol AN-2K
  Solubility @ RT: <5%
[1]; Phosphoric Acid (85% Solution)
  Solubility @ RT: <5%
[1]; Polyethylene Glycol Dimethyl Ether (DMPEG-350)
  Solubility @ RT: <5%
[1]; Polyethylene Glycol PEG 200, 50/50 water
  Solubility @ RT: ≧10%
[1]; Polyethylene Glycol PEG 200, Neat
  Solubility @ RT: ≦10%
[1]; Polyethylene Glycol PEG 300, 50/50 water
  Solubility @ RT: ≧10%
[1]; Polyethylene Glycol PEG 300, Neat
  Solubility @ RT: ≦10%
[1]; Polyethylene Glycol PEG 400, Neat (Viscous)
  Solubility @ RT: ≦10%
[1]; Polyglycol P-2000
  Solubility @ RT: <5%
[1]; Polyoxyethylene-20-Sorbitan Monolaurate (Tween 20), 50/50 water
  Solubility @ RT: ≧10%
[1]; Polyoxyethylene-20-Sorbitan Monolaurate (Tween 20), Neat (Viscous)
  Solubility @ RT: ≦10%
[1]; Polyoxyethylene-20-Sorbitan Monooleate (Tween 80), 50/50 water
  Solubility @ RT: ≧10%
[1]; Polyoxyethylene-20-Sorbitan Monooleate (Tween 80), Neat (Viscous)
  Solubility @ RT: ≦10%
[1]; Polyoxyl 35 Castor Oil (Cremophor EL), 50/50 water
  Solubility @ RT: ≧10%
[1]; Polyoxyl 35 Castor Oil (Cremophor EL), Neat (Viscous)
  Solubility @ RT: ≦10%
[1]; Propionic Acid (20% solution)
  Solubility @ RT: ≧10%
[1]; Propylene Carbonate
  Solubility @ RT: <5%
[1]; Propylene Glycol Laurate (Lauroglycol FCC)
  Solubility @ RT: <5%
[1]; Propylene glycol diester of caprylic/capric acid (Migylol 840)
  Solubility @ RT: <8%
[1]; Soybean Oil Methyl Ester (Soy Gold 2000)
  Solubility @ RT: <8%
[1]; Succinic Acid (5% Solution)
  Solubility @ RT: <5%
[1]; Sunflower Oil (Wesson)
  Solubility @ RT: <8%
[1]; Tetrahydrfurfuryl Alcohol (THFA)
  Solubility @ RT: ≦10%
[1]; Tetrahydrofuran (THF)
  Solubility @ RT: <10%
[1]; Toulene
  Solubility @ RT: <10%
[1]; Triacetin
  Solubility @ RT: <5%
[1]; Trichloroethylene
  Solubility @ RT: <10%
[1]; Triglyceride of caprylic/capric and succinic acid (Migylol 829)
  Solubility @ RT: <8%
[1]; β-Cyclodextrin Sulfbutyl Ether 7 Sodium Salt 20% Solution (Captisol)
  Solubility @ RT: <10%
[2]; Acetic Acid Glacial (50% solution), buffered 10% formulation, generation of new related subs in stability storage
  Comment: stability: Stability discontinued
[2]; Lactic Acid (85% solution), 10% formulation by heating and buffering pH, generation of new related subs in stability storage
  Comment: stability: Stability discontinued
[2]; MPEG solvents (MPEG 350, 550)
  Comment: new related sub peaks in stability studies: number of new related sub
[2]; Methanol, forms methoxy ractopamine related substance
  Comment: reaction with solvent: Methanol reacts with
[2]; PEG solvents (PEG 200, 300)
  Comment: new related sub peaks in stability studies: number of new related sub
[2]; Pluronic L61 to water at 50/50, 10% ractopamine
  Comment: new related substance peaks in stability studies: a number of new related
[2]; Propionic Acid (20% solution), generated a number of large related sub peaks
  Comment: stability: Stability discontinued -
[3]; Polyoxyethylene 20 Sorbitan Monolaurate to water below 50/50, prolonged storage at 5° C.
  Comment: physical stability on storage: below 50/50 precipitate after
[3]; Polyoxyethylene-20-Sorbitan Monooleate to water below 50/50, prolonged storage at 5° C.
  Comment: physical stability on storage: below 50/50 precipitate after
[3]; Polyoxyl 35 Castor Oil to water at 50/50, short term (3 months) storage at 5° C.
  Comment: physical stability on storage: somewhat viscous and precipitate

## CC(CCc1ccc(O)cc1)NCC(O)c1ccc(O)cc1 (stereo not drawn) [ractopamine]
[1]; PSL to water 50:50 w/w
  solubility: greater than 10%
[4]; 100% propylene glycol (PG) or aqueous vehicle system containing PG
  solubility: > 25 % w/w
[4]; vehicle 50% PG and 50% water, 25° C.
  solubility (capable of dissolving): at least 10%
[4]; vehicle system containing PEG 200, PEG 300, or both
  concentration achievable in solution: > 20%
[2]; PEG 200 / PEG 300 vehicle, not reversible under normal storage conditions
  reaction with solvent: form covalently bonded related substances
[2]; aqueous PSL vehicle, storage up to 24 months at 25° C. and 12 months at 40° C.
  new related substances: < 0.2%
[2]; aqueous PSO vehicle, storage up to 24 months at 25° C.
  new related substances: < 0.2%
[2]; propylene glycol solutions, normal room temperature (~25° C.)
  formation of new related substances during storage: new related substances form slowly
[3]; 10% ractopamine formulations, PSO to water below 50/50 w/w
  physical stability on storage: precipitate out
[3]; Ten percent ractopamine formulations, PCO to water below 50/50 w/w
  physical stability on storage: precipitate out
